# Experimental data taken from publication PMC4769319, “Cohesin Releases DNA through Asymmetric ATPase-Driven Ring Opening” (Molecular Cell, 2016).
# Target: T1, Smc1/Smc3 heterodimer with Scc1-C (cohesin) (Saccharomyces cerevisiae, UniProt P32908+P47037)
# T1 construct: N-terminal tags; Sf9 insect cells; fluorescently labelled for MST; with Sister chromatid cohesion protein 1
# T1 sequence (P32908 1-1225): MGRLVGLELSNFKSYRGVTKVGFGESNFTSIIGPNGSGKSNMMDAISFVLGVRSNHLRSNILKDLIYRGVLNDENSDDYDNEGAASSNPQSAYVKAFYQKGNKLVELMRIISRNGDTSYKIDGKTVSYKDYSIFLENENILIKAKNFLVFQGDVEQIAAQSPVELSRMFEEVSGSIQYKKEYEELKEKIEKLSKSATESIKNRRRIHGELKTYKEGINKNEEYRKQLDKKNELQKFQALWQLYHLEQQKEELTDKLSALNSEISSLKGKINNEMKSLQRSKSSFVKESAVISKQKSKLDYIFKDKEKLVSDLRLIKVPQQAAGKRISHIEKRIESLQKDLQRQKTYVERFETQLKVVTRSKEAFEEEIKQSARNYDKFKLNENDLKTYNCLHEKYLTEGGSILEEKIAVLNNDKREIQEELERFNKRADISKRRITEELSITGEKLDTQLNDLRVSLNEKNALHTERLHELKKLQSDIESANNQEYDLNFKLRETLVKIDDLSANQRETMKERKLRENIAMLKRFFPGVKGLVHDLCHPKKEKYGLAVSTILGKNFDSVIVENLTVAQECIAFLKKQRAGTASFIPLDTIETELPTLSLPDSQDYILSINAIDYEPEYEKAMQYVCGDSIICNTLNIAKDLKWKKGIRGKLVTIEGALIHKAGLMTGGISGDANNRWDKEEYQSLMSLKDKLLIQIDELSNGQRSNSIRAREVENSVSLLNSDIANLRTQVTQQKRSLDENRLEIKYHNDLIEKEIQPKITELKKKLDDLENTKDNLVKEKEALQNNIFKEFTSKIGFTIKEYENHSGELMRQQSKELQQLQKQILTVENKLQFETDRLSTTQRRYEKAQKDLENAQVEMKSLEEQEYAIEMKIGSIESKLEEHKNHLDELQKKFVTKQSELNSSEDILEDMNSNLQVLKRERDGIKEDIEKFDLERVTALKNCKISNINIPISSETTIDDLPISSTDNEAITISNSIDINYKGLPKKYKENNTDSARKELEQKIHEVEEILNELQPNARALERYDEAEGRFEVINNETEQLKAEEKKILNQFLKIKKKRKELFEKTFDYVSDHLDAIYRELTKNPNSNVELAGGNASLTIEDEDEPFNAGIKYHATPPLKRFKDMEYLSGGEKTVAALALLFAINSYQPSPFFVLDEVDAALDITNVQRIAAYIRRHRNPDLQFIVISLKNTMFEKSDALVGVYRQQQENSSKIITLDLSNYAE
# T1 sequence (P47037 1-1230): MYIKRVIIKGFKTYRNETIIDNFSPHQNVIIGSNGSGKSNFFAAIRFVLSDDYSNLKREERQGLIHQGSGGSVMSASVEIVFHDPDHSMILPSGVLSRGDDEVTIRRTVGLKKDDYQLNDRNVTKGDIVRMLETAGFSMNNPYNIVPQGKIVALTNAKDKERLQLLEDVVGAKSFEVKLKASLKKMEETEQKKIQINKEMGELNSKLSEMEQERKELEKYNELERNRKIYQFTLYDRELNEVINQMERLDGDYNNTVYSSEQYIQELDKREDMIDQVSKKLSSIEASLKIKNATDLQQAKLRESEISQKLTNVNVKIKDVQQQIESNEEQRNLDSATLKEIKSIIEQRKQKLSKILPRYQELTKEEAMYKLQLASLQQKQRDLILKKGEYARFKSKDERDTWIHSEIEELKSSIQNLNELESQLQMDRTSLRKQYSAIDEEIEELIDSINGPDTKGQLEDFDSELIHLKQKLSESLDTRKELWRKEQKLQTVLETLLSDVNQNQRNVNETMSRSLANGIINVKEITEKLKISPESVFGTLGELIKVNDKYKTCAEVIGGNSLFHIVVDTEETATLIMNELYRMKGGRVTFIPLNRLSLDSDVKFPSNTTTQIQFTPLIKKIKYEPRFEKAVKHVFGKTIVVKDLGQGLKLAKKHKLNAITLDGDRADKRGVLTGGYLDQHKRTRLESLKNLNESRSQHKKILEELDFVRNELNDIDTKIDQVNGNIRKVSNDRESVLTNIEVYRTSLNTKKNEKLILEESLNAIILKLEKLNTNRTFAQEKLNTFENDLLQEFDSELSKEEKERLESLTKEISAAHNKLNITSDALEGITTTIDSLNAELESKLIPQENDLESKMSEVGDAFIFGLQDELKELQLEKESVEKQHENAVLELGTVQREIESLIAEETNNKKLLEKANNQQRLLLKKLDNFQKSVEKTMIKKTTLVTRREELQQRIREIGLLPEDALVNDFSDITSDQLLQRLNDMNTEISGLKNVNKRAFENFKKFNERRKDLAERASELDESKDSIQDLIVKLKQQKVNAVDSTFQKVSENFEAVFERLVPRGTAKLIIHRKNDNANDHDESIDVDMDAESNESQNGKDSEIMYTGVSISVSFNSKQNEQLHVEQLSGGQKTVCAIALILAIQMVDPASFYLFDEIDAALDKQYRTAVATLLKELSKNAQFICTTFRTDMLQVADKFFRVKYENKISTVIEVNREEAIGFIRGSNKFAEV
# T1 sequence (Q12158 1-566 partner): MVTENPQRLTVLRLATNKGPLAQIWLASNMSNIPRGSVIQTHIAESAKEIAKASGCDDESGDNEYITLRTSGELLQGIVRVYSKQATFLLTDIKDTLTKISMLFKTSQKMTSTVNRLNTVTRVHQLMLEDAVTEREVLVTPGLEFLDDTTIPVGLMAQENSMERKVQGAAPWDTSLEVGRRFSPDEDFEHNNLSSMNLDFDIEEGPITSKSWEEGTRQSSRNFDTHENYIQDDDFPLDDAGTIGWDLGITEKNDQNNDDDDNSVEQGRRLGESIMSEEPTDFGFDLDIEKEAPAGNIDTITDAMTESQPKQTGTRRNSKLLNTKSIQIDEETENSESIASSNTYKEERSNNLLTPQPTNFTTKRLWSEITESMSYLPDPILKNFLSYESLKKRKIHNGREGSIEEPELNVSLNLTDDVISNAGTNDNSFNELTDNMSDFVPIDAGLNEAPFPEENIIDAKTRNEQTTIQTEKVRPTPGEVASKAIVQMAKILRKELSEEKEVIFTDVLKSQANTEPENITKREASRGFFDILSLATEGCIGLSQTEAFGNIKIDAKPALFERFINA
# Test: microscale thermophoresis
# Assay type: binding
# Conditions: fluorescently labelled protein; Smc1 co-purified with Scc1-C, plus Smc3; read-out: affinity
# Source text: microscale thermophoresis on Smc1/Smc3 heterodimer with Scc1-C (cohesin) | wild-type and mutant cohesin complexes appear to have similar affinities to ADP
smiles,measurement,value
Nc1ncnc2c1ncn2[C@@H]1O[C@H](COP(=O)(O)OP(=O)(O)O)[C@@H](O)[C@H]1O [ADP],Kd,> 1000 µM
